Source: patent publication US7282150B2, “Method of extracting and method of purifying an effective substance” (Ezaki Glico Co., Ltd., priority 2001, dated 2007)

Assays:
[1] = THF extraction of unconcentrated or concentrated glucoamylase-treated glycosylation reaction solution; assay type: physicochemical; conditions: for Extraction rate (%), THF phase total: three THF extractions, 30° C.
Procedure: Thereafter, glucoamylase treatment was performed at 45° C. for 4 hours, thereby obtaining a reaction solution. […] Extraction was conducted under a condition of 30° C. The mixture was allowed to stand for 1 hour. The mixture was separated into two phases. The upper THF phase was recovered. […] The obtained THF phases were combined together. Note that although an intermediate layer was generated in the concentrate during the phase separation, the intermediate layer was included in the aqueous phase.

[2] = THF extraction of glucoamylase (XL-4) treated glycosylation reaction solution; assay type: physicochemical; conditions: 1 ml + 1 ml THF
Procedure: Thereafter, the mixture was incubated at 45° C. for 3 or 4 hours. After the incubation, the contents of glucose and maltose in the solution were confirmed by a HPLC analysis method. […] Glucose and maltose in the eluate were detected by a RI detector. […] After shaking, the mixture was allowed to stand for 1 hour. […] The aqueous phase was recovered. […] The amounts of glucose and maltose were measured by an HPLC analysis method using the aqueous phase. […] Glucose and maltose in the eluate were detected by a RI detector. […] Based on the obtained results and the above-described glucose concentration, maltose concentration and HQG concentration before extraction with THF, the extraction rate to the THF phase was calculated.

[3] = Influence of temperature on extraction to a tetrahydrofuran phase; assay type: physicochemical; conditions: aqueous phase made up to 5 ml
Procedure: Thereafter, the mixture was incubated at 45° C. for 4 hours to obtain a post-glucoamylase treatment reaction solution. […] Thereafter, the mixture was centrifuged at 3000 rpm for 5 minutes. […] The aqueous phase was recovered.

[4] = Extraction from aqueous 30% glucose solution with tetrahydrofuran or acetonitrile (absorbance at 280 nm of aqueous phase); assay type: physicochemical; conditions: single extraction; for starting amount extracted in the tetrahydrofuran phase: 10 ml THF + 10 ml aqueous solution containing 30% glucose; for starting amount extracted in the acetonitrile phase: 10 ml acetonitrile + 10 ml aqueous solution containing 30% glucose
Procedure: (§1) 1 g of a mixture of catechins (SUNPHENON®; manufactured by Taiyo Kagaku Co., Ltd.) was dissolved in 100 ml of an aqueous solution containing 30% glucose to obtain a sample aqueous solution. The absorbance at 280 nm of the sample aqueous solution was measured. […] Thereafter, the mixture was allowed to stand for 30 minutes. […] The lower phase (aqueous phase) was recovered, and the volume and the absorbance at 280 nm thereof were measured. The amount of the catechins extracted in the upper phase (polar organic solvent phase) was calculated from a reduction in the absorbance at 280 nm of the lower phase and the solution volume of the lower phase.
This additional extraction operation to Example 1a was conducted except for use of 10 ml of acetonitrile instead of 10 ml of tetrahydrofuran.
as §1, with “of hesperidin glycosides (manufactured” for “of a mixture of catechins (SUNPHENON®; manufactured”, “by Toyo Sugar Refining” for “by Taiyo Kagaku”, “Ltd.) were” for “Ltd.) was”, “of hesperidin glycosides” for “of the catechins”, “phase. […] Further, similar operations and measurements were performed twice more by adding 5 ml of tetrahydrofuran to the aqueous phase recovered after the tetrahydrofuran extraction.” for “phase.”
This additional extraction operation to Example 3a was conducted except for use of 10 ml of acetonitrile instead of 10 ml of tetrahydrofuran.
(§2) 1 g of salicin was dissolved in 100 ml of an aqueous solution containing 30% glucose to obtain a sample aqueous solution. The absorbance at 280 nm of the sample aqueous solution was measured. […] Thereafter, the mixture was allowed to stand for 30 minutes. […] The lower phase (aqueous phase) was recovered, and the volume and the absorbance at 280 nm thereof were measured. The amount of salicin extracted in the upper phase (polar organic solvent phase) was calculated from a reduction in the absorbance at 280 nm of the lower phase and the solution volume of the lower phase.
This additional extraction operation to Example 5a was conducted except for use of 10 ml of acetonitrile instead of 10 ml of tetrahydrofuran.
(§3) 1 g of caffeic acid was dissolved in 100 ml of an aqueous solution containing 30% glucose to obtain a sample aqueous solution. The absorbance at 280 nm of the sample aqueous solution was measured. […] Thereafter, the mixture was allowed to stand for 30 minutes. […] The lower phase (aqueous phase) was recovered, and the volume and the absorbance at 280 nm thereof were measured. The amount of caffeic acid extracted in the upper phase (polar organic solvent phase) was calculated from a reduction in the absorbance at 280 nm of the lower phase and the solution volume of the lower phase.
This additional extraction operation to Example 7a was conducted except for use of 10 ml of acetonitrile instead of 10 ml of tetrahydrofuran.
(§4) 1 g of salicyl alcohol was dissolved in 100 ml of an aqueous solution containing 30% glucose to obtain a sample aqueous solution. The absorbance at 280 nm of the sample aqueous solution was measured. […] Thereafter, the mixture was allowed to stand for 30 minutes. […] The lower phase (aqueous phase) was recovered, and the volume and the absorbance at 280 nm thereof were measured. The amount of salicyl alcohol extracted in the upper phase (polar organic solvent phase) was calculated from a reduction in the absorbance at 280 nm of the lower phase and the solution volume of the lower phase.
This additional extraction operation to Example 9a was conducted except for use of 10 ml of acetonitrile instead of 10 ml of tetrahydrofuran.

[5] = Extraction from aqueous 30% glucose + 10% sodium chloride solution with acetone or isopropanol (absorbance at 280 nm of aqueous phase); assay type: physicochemical; conditions: single extraction; for starting amount extracted in the acetone phase: 10 ml acetone + 10 ml aqueous solution containing 30% glucose and 10% sodium chloride; for starting amount extracted in the isopropanol phase: 10 ml isopropanol + 10 ml aqueous solution containing 30% glucose and 10% sodium chloride
Procedure: as §1, with “Kagaku)” for “Kagaku Co., Ltd.)”, “glucose and 10% sodium chloride” for “glucose”
This additional extraction operation to Example 2a was conducted except for use of 10 ml of isopropanol instead of 10 ml of acetone.
as §1, with “of hesperidin glycosides (Toyo Sugar Refining” for “of a mixture of catechins (SUNPHENON®; manufactured by Taiyo Kagaku”, “Ltd.) were” for “Ltd.) was”, “glucose and 10% sodium chloride” for “glucose”, “of hesperidin glycosides” for “of the catechins”, “phase. […] Further, similar operations and measurements were performed twice more by adding 5 ml of acetone to the aqueous phase recovered after the acetone extraction.” for “phase.”
This additional extraction operation to Example 4a was conducted except for use of 10 ml of isopropanol instead of 10 ml of acetone.
as §2, with “glucose and 10% sodium chloride” for “glucose”
This additional extraction operation to Example 6a was conducted except for use of 10 ml of isopropanol instead of 10 ml of acetone.
as §3, with “glucose and 10% sodium chloride” for “glucose”
This additional extraction operation to Example 8a was conducted except for use of 10 ml of isopropanol instead of 10 ml of acetone.
as §4, with “0.1 g” for “1 g”, “glucose and 10% sodium chloride” for “glucose”
This additional extraction operation to Example 10a was conducted except for use of 10 ml of isopropanol instead of 10 ml of acetone.

[6] = Acetone extraction of hesperidin from orange juice concentrate with sodium chloride (HPLC); assay type: physicochemical; conditions: single extraction, orange juice five-fold concentrate + equal volume 15% sodium chloride solution
Procedure: 10 ml of 15% sodium chloride solution was added to 10 ml of California orange juice concentrate (five-fold concentrate), and stirred to homogeneity, thereby obtaining an aqueous solution. The amount of hesperidin in the California orange juice concentrate used was measured by HPLC using a column ODS, where the mobile phase was a mixture of acetonitrile and water at 20:80, the flow rate was 0.5 ml/min, and the column temperature was 40° C. The absorbance of the eluate was detected at 280 nm. A specific method of detecting the amount of hesperidin is described in Japanese Laid-Open Publication No. 8-80177. […] Thereafter, the mixture was allowed to stand for 30 minutes. […] The upper phase (polar organic solvent phase) was recovered, and the volume thereof was measured. The amount of hesperidin was measured by HPLC as described above. As a result, by a single extraction operation, 75% of hesperidin was extracted in the acetone phase.

[7] = cited from earlier work
[8] = unconcentrated amylase treatment reaction solution

OC[C@H]1O[C@H](O[C@H]2[C@H](O)[C@@H](O)C(O)O[C@@H]2CO)[C@H](O)[C@@H](O)[C@@H]1O (mixture of isomers) [Maltose, maltose]
Corrected concentration (equivalent in 5 ml) %, THF phase total ([1]; 70% concentrate): 0%
Extraction rate (%), THF phase total ([1]; 70% concentrate): 0%
Corrected concentration (equivalent in 5 ml) %, THF phase total ([1]; 80% concentrate): 0%
Extraction rate (%), THF phase total ([1]; 80% concentrate): 0%
Corrected concentration (equivalent in 5 ml) %, THF phase total [1, 8]: 0.1%
Extraction rate (%), THF phase total [1, 8]: 3.2%
Extraction rate to THF (%) ([2]; (XL-4) 1-fold glucoamylase treatment solution): 38.6%
Extraction rate to THF (%) ([2]; (XL-4) 1.5-fold glucoamylase treatment solution): 33.0%
Extraction rate to THF (%) ([2]; (XL-4) 2-fold glucoamylase treatment solution): 36.4%

Oc1ccc(O)cc1 [HQ, hydroquinone]
concentration of the aqueous phase after THF extraction ([3]; 3° C.): 0.9%
concentration of the aqueous phase after THF extraction ([3]; 10° C.): 0.7%
concentration of the aqueous phase after THF extraction ([3]; 20° C.): 1.0%
concentration of the aqueous phase after THF extraction ([3]; 22° C.): 1.0%
concentration of the aqueous phase after THF extraction ([3]; 30° C.): 1.0%
concentration of the aqueous phase after THF extraction ([3]; 45° C.): 1.2%

O=C(O)/C=C/c1ccc(O)c(O)c1 [caffeic acid]
starting amount extracted in the tetrahydrofuran phase [4]: 88.6%
starting amount extracted in the acetonitrile phase [4]: 76.2%
starting amount extracted in the acetone phase [5]: 78.2%
starting amount extracted in the isopropanol phase [5]: 87.2%

COc1ccc([C@@H]2CC(=O)c3c(O)cc(O[C@@H]4O[C@H](CO[C@@H]5O[C@@H](C)[C@H](O)[C@@H](O)[C@H]5O)[C@@H](O)[C@H](O)[C@H]4O)cc3O2)cc1O [hesperidin]
hesperidin extracted in the acetone phase [6]: 75%
solubility in acetone ([7]; acetone): insoluble in acetone
solubility in water ([7]; water): poorly soluble in water

OCc1ccccc1O[C@@H]1O[C@H](CO)[C@@H](O)[C@H](O)[C@H]1O [salicin]
starting amount extracted in the tetrahydrofuran phase [4]: 96.5%
starting amount extracted in the acetonitrile phase [4]: 98.1%
starting amount extracted in the acetone phase [5]: 58.0%
starting amount extracted in the isopropanol phase [5]: 97.0%

OCc1ccccc1O [salicyl alcohol]
starting amount extracted in the tetrahydrofuran phase [4]: 98.7%
starting amount extracted in the acetonitrile phase [4]: 98.2%
starting amount extracted in the acetone phase [5]: 87.7%
starting amount extracted in the isopropanol phase [5]: 98.7%
